Consider 4 compounds from publication PMC5748433, “Study on the effect of EMD386088, a 5-HT6 receptor partial agonist, in enhancing the anti-immobility action of some antidepressants in rats” (Naunyn-Schmiedeberg's Archives of Pharmacology, 2017).

The experiment deals with rats. Nature of the experiment: Open field (OF) test in rats, locomotor/exploratory activity. It counts as in vivo, rat. The following applies: 5-min session, mean ± SEM. The protocol:
All drugs were dissolved in distilled water immediately before administration in a volume of 2 mL/kg. All the compounds were administered intraperitoneally (i.p.). […] Control animals received vehicle according to the same schedule.
The experiment was performed using Motor Monitor System (Campden Instruments, Ltd., UK) consisted of two SmartFrame Open Field stations (40 × 40 × 38 cm) with 16 × 16 beams, located in sound attenuating chambers and connected to PC software by control chassis. Individual vehicle- or drug-injected animals were gently placed in the center of the station. An automated motor monitor system recorded ambulation (the number of crossings in X and Y axis), the number of rearing episodes, and total distance covered by a rat for 5 min.
The data of behavioral studies were evaluated using two-way analysis of variance (ANOVA) followed by Bonferroni’s post hoc test, p < 0.05 was considered significant.

The mark [1] stands for this setting: 10 mg/kg i.p. (s-citalopram 30 min, moclobemide and bupropion 60 min before test).
[2] abbreviates: 15 mg/kg i.p. 30 min before test.

As to `CC(NC(C)(C)C)C(=O)c1cccc(Cl)c1` (centres unmarked) [bupropion], under setting [1], the “Exploratory activity Ambulation X” value is given as 284 ± 31, the “Exploratory activity Ambulation Y” value turned out to be 301 ± 35, the “Exploratory activity Rearings” value came to 83 ± 9 and the “Exploratory activity Total distance (cm)” value is 3083 ± 229 cm.

As to `CN(C)CCCN1c2ccccc2CCc2ccccc21` [imipramine], under setting [2], the “Exploratory activity Ambulation Y” value was determined as 203 ± 41, the “Exploratory activity Rearings” value is recorded as 54 ± 3 and the “Exploratory activity Total distance (cm)” value is on record as 2212 ± 332 cm.

For `O=C(NCCN1CCOCC1)c1ccc(Cl)cc1` [moclobemide], under setting [1], the “Exploratory activity Ambulation X” value is listed as 200 ± 26, the “Exploratory activity Ambulation Y” value is given as 192 ± 23, the “Exploratory activity Rearings” value is 62 ± 3 and the “Exploratory activity Total distance (cm)” value is 2160 ± 183 cm.

Turning to `CN(C)CCC[C@@]1(c2ccc(F)cc2)OCc2cc(C#N)ccc21` [s-citalopram], under setting [1], the “Exploratory activity Ambulation X” value was determined as 197 ± 15, the “Exploratory activity Ambulation Y” value turned out to be 179 ± 19 and the “Exploratory activity Rearings” value came out at 64 ± 12.
